According to BindingDB's records for doi:10.7270/Q26112HR (n/a, 1997):
pKi: −log10 of the molar value.

Molecular target: D(3) dopamine receptor (Homo sapiens, UniProt P35462)
Test: Ability to displace [125I]-sulpiride from human Dopamine receptor D3, expressed in CHO cells

Sequence of D(3) dopamine receptor (P35462 as listed by the source): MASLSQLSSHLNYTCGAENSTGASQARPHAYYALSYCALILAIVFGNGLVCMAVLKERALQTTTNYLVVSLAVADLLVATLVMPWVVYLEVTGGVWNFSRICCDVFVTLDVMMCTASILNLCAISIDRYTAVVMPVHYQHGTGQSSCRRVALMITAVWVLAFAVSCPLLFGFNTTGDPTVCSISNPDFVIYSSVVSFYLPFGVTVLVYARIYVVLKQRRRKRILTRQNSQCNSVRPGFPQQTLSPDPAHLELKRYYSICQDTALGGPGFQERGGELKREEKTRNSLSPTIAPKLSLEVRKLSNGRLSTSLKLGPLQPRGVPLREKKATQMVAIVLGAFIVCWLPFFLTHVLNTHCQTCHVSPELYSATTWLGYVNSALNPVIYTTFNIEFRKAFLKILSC

CCS(=O)(=O)c1ccc(OC)c(-c2ccc(CN3CCCCCC3c3ccccc3)[nH]2)c1 (stereo unspecified)
pKi: 8.89
